{"source": "patent US20090023186A1", "about": "“USE OF VALPROIC ACID FOR ENHANCING PRODUCTION OF RECOMBINANT PROTEINS IN MAMMALIAN CELLS” (EXCELLGENE SA, priority 2007, published 2009)", "test_system": "HEK293E cells", "experiment": "Combination with IDMTs, IgG batch yield by ELISA (Example 6)", "assay_type": "cell-based, Human", "settings": "VPA 4 mmol/l; no addition = 100%; day 5 after transfection", "description": "10 million suspension-adapted HEK293E cells were resuspended in 0.5 ml of Ex-Cell 293 HEK 293 serum-free medium with 4 mmol/l L-glutamine (Cat. No. 14571C-[…]; Lot No. 6A0093; SAFC Biosciences, Lenexa, Kans., USA, “Ex-Cell” medium; note: “Ex-Cell” medium-as used herein-refers to a medium comprising 4 mmol/l L-glutamine) in a 50-ml filter tube each (TPP AG, Trasadingen, Switzerland; Cat. No. 87050, Lot 20050174). In a separate set, 10 million suspension-adapted CHO DG44 cells were resuspended in 0.5 ml of ProCHO5 serum-free medium with 4 mmol/[…] hypoxanthine and 0.194 g/l thymidine (BioWhittaker (Lonza), Belgium; Cat. No. BE12-[…]; Lot No. 7MB0040; “ProCHO5” medium; note: “ProCHO5” medium-as used herein-refers to a medium comprising 4 mmol/[…] hypoxanthine and 0.194 g/l thymidine) in a 50-ml filter tube each (TPP AG, Trasadingen, Switzerland; Cat. No. 87050, Lot 20050174). Then 12.5 μg plasmid DNA at a concentration of 1 μg/μl was added in each tube with the following composition 50% (6.25 μg) p-LC (SEQ ID NO: 1) 50% (6.25 μg) p-HC (SEQ ID NO: 3). Plasmid p-LC comprises the genetic information for the production of the light chain of an IgG antibody, plasmid p-HC comprises the genetic information for the production of the heavy chain of an IgG antibody. The particular vector constructs used in the present invention can also be obtained from the inventors. The inventors can be contacted via e-mail at […]. […] In short, Goat anti-human kappa light chain IgG (Biosource) was used for coating the ELISA-plates, and with AP-conjugated goat anti-human gamma chain IgG (Biosource) the synthesized IgG1 was detected. […] Absorption was measured at 405 nm against 490 nm using a microplate reader (SPECTRAmaxTM340; Molecular Devices, Palo Alto, Calif., USA).", "data": [{"compound": "CCCC(CCC)C(=O)O", "note": "[VPA, valproic acid]", "values": [{"measurement": "Fold increase in batch yield over control", "result": "520% ± 30%"}]}]}
